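Grown in 96-well plates, cells were treated for 48 hours with each compound at five concentrations. Insufficient inhibition: endpoint recorded as highest concentration tested. TGI: concentration producing complete growth inhibition.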
What was measured:
Assay in all cases: NCI-60 cell line screen, 48 h
DMS 114 small cell lung = test system: DMS 114 small cell lung
DMS 273 small cell lung = test system: DMS 273 small cell lung
U251 CNS = test system: U251 CNS
HOP-92 NSCLC = test system: HOP-92 NSCLC
NCI-H522 lung = test system: NCI-H522 lung
LXFL 529 NSCLC = test system: LXFL 529 NSCLC
IGROV1 ovarian = test system: IGROV1 ovarian
EKVX NSCLC = test system: EKVX NSCLC
KM12 colon = test system: KM12 colon
K-562 leukemia = test system: K-562 leukemia
UACC-257 melanoma = test system: UACC-257 melanoma
HT29 colon = test system: HT29 colon
HOP-62 NSCLC = test system: HOP-62 NSCLC
HCT-116 colon = test system: HCT-116 colon
MALME-3M melanoma = test system: MALME-3M melanoma
UO-31 renal = test system: UO-31 renal
OVCAR-3 ovarian = test system: OVCAR-3 ovarian
SNB-75 CNS = test system: SNB-75 CNS
SNB-78 CNS = test system: SNB-78 CNS
A498 renal = test system: A498 renal
SF-539 CNS = test system: SF-539 CNS
SK-MEL-28 melanoma = test system: SK-MEL-28 melanoma
COLO 205 colon = test system: COLO 205 colon
NCI-H23 lung = test system: NCI-H23 lung
OVCAR-4 ovarian = test system: OVCAR-4 ovarian
LOX IMVI melanoma = test system: LOX IMVI melanoma
SNB-19 CNS = test system: SNB-19 CNS
HOP-18 NSCLC = test system: HOP-18 NSCLC
MOLT-4 leukemia = test system: MOLT-4 leukemia
HL-60(TB) leukemia = test system: HL-60(TB) leukemia
M19-MEL melanoma = test system: M19-MEL melanoma
NCI-H460 lung = test system: NCI-H460 lung
786-0 renal = test system: 786-0 renal
SW-620 colon = test system: SW-620 colon
UACC-62 melanoma = test system: UACC-62 melanoma
CAKI-1 renal = test system: CAKI-1 renal
SN12C renal = test system: SN12C renal
OVCAR-5 ovarian = test system: OVCAR-5 ovarian
SF-295 CNS = test system: SF-295 CNS
M14 melanoma = test system: M14 melanoma
XF 498 CNS = test system: XF 498 CNS
SK-MEL-5 melanoma = test system: SK-MEL-5 melanoma
OVCAR-8 ovarian = test system: OVCAR-8 ovarian
A549 NSCLC = test system: A549 NSCLC
RPMI-8226 leukemia = test system: RPMI-8226 leukemia
TK-10 renal = test system: TK-10 renal
ACHN renal = test system: ACHN renal
RXF 393 renal = test system: RXF 393 renal
CCRF-CEM leukemia = test system: CCRF-CEM leukemia
SF-268 CNS = test system: SF-268 CNS
DLD-1 colon = test system: DLD-1 colon
HCT-15 colon = test system: HCT-15 colon
NCI-H226 lung = test system: NCI-H226 lung
KM20L2 colon = test system: KM20L2 colon
SK-MEL-2 melanoma = test system: SK-MEL-2 melanoma
SR leukemia = test system: SR leukemia
SK-OV-3 ovarian = test system: SK-OV-3 ovarian
HCC-2998 colon = test system: HCC-2998 colon

Measured: TGI

COc1cc(/C=C/c2cccnc2)cc(OC)c1OC
not listed: SK-MEL-2 melanoma | SR leukemia | SK-OV-3 ovarian | HCC-2998 colon
> 100 µM: all other assays above

Cc1nc2nnnn2c2c1C(=O)Nc1ccccc1N2
not listed: A498 renal | OVCAR-4 ovarian | CAKI-1 renal | OVCAR-5 ovarian | SK-MEL-5 melanoma | HCT-15 colon
> 100 µM: all other assays above

CC(C)(Oc1ccc(C(=O)c2ccc(Cl)cc2)cc1Cl)C(=O)Nc1c(Cl)cccc1Cl
not listed: SNB-75 CNS | COLO 205 colon | OVCAR-4 ovarian | SN12C renal | ACHN renal | NCI-H226 lung | HCC-2998 colon
> 100 µM: all other assays above

Reference: PubChem BioAssay (NCI)
